Test results: patent publication US5468742A, “8-vinyl- and 9-ethinyl-quinolone-carboxylic acids” (Bayer Aktiengesellschaft, priority 1991, dated 1995)
Converted amounts (≈) assume the structure as drawn. Like-named read-outs stand apart in the source and are kept apart here.

What was measured:
Test in all cases: MIC, serial dilution on Iso-Sensitest agar
Format in all cases: cell-based
[1] = tested on: Acinetobacter calcoaceticus 14068
Protocol: (§1) The minimum inhibitory concentrations (MIC) were determined on Iso-Sensitest agar (Oxoid) using the serial dilution method. For each test substance, a series of agar plates was prepared which contained concentrations of the active compound which decreased as the dilution was doubled. The agar plates were inoculated using a multipoint inoculator (Denley). The inocula used were overnight cultures of the pathogens which had previously been diluted to such an extent that each inoculation point contained approx. 10^4 colony-forming units. The inoculated agar plates were incubated at 37° C., and growth of the pathogens was determined after approx. 20 hours. The MIC value (μg/ml) indicates the lowest concentration of active compound where no growth was discernible to the naked eye.
(§2) The table below lists the MIC values of some of the compounds according to the invention compared with ciprofloxacin.

E. coli Neumann = conditions: Escherichia coli
Protocol: as §1, §2

[2] = tested on: Enterococcus faecalis 27101
Protocol: as §1, §2

[3] = tested on: Enterococcus faecalis 9790
Protocol: as §1, §2

Micrococcus luteus 9341 = tested on: Micrococcus luteus 9341
Protocol: as §1, §2

[4] = tested on: Staphylococcus aureus 133
Protocol: as §1, §2

[5] = tested on: Staphylococcus aureus 1756
Protocol: as §1, §2

[6] = tested on: Staphylococcus aureus ICB 25701
Protocol: as §1, §2

[7] = Acinetobacter calcoaceticus 14068, approx. 10^4 CFU per inoculation point, 37° C., approx. 20 hours, read-out: MIC
[8] = E. coli Neumann, approx. 10^4 CFU per inoculation point, 37° C., approx. 20 hours, read-out: MIC
[9] = Enterococcus faecalis 27101, approx. 10^4 CFU per inoculation point, 37° C., approx. 20 hours, read-out: MIC
[10] = Enterococcus faecalis 9790, approx. 10^4 CFU per inoculation point, 37° C., approx. 20 hours, read-out: MIC
[11] = Micrococcus luteus 9341, approx. 10^4 CFU per inoculation point, 37° C., approx. 20 hours, read-out: MIC
[12] = Staphylococcus aureus 133, approx. 10^4 CFU per inoculation point, 37° C., approx. 20 hours, read-out: MIC
[13] = Staphylococcus aureus 1756, approx. 10^4 CFU per inoculation point, 37° C., approx. 20 hours, read-out: MIC
[14] = ICB25701, Staphylococcus aureus ICB 25701, approx. 10^4 CFU per inoculation point, 37° C., approx. 20 hours, read-out: MIC

Compound | MIC [1, 7] [µg/mL] | MIC (E. coli Neumann; [8]) [µg/mL] | MIC [2, 9] [µg/mL] | MIC [3, 10] [µg/mL] | MIC (Micrococcus luteus 9341; [11]) [µg/mL] | MIC [4, 12] [µg/mL] | MIC [5, 13] [µg/mL] | MIC [6, 14] [µg/mL] | MIC ([1]; Acinetobacter calcoaceticus, 14068, 20 h) [µg/mL] | MIC (E. coli Neumann; 20 h) [µg/mL] | MIC ([2]; Enterococcus faecalis, 27101, 20 h) [µg/mL] | MIC ([3]; Enterococcus faecalis, 9790, 20 h) [µg/mL] | MIC (Micrococcus luteus 9341; Micrococcus luteus, 9341, 20 h) [µg/mL] | MIC ([4]; Staphylococcus aureus, 133, 20 h) [µg/mL] | MIC ([5]; Staphylococcus aureus, 1756, 20 h) [µg/mL] | MIC ([6]; Staphylococcus aureus, ICB25701, 20 h) [µg/mL]
C#Cc1c(N2C[C@@H]3CCCN[C@@H]3C2)c(F)cc2c(=O)c(C(=O)O)cn(C3CC3)c12 (relative stereo) [Example 5, 1-cyclopropyl-7-(cis-2,8-diazabicyclo[4.3.0]non-8-yl)-8-ethinyl-6-fluoro-1,4-dihydro-4-oxo-3-quinolinecarboxylic acid] | 0.03 (≈ 0.0759 µM) | 0.02 (≈ 0.0506 µM) | 0.13 (≈ 0.329 µM) | 0.13 (≈ 0.329 µM) | 0.5 (≈ 1.26 µM) | 0.13 (≈ 0.329 µM) | 0.03 (≈ 0.0759 µM) | 1 (≈ 2.53 µM) | – | – | – | – | – | – | – | –
O=C(O)c1cn(C2CC2)c2cc(N3CCNCC3)c(F)cc2c1=O [Ciprofloxacin, ciprofloxacin, reference compound] | – | – | – | – | – | – | – | – | 0.25 (≈ 0.754 µM) | 0.02 (≈ 0.0604 µM) | 0.5 (≈ 1.51 µM) | 0.5 (≈ 1.51 µM) | 2 (≈ 6.04 µM) | 0.25 (≈ 0.754 µM) | 0.25 (≈ 0.754 µM) | 16 (≈ 48.3 µM)
C#Cc1c(N2CCN(C)CC2)c(F)cc2c(=O)c(C(=O)O)cn(C3CC3)c12 [Example 1, 1-cyclopropyl-8-ethinyl-6-fluoro-1,4-dihydro-7-(4-methyl-1-piperazinyl)-4-oxo-3-quinolinecarboxylic acid] | – | 0.02 (≈ 0.0541 µM) | 0.25 (≈ 0.677 µM) | 0.25 (≈ 0.677 µM) | – | 0.13 (≈ 0.352 µM) | 0.13 (≈ 0.352 µM) | 4 (≈ 10.8 µM) | – | – | – | – | – | – | – | –
C#Cc1c(N2CC3NCCOC3C2)c(F)cc2c(=O)c(C(=O)O)cn(C3CC3)c12 (centres unmarked) [Example 7, 1-cyclopropyl-8-ethinyl-6-fluoro-1,4-dihydro-7-(2-oxa-5,8-diazabicyclo[4.3.0]non-8-yl)-4-oxo-3-quinolinecarboxylic acid] | 0.25 (≈ 0.629 µM) | 0.13 (≈ 0.327 µM) | 0.25 (≈ 0.629 µM) | 0.25 (≈ 0.629 µM) | 1 (≈ 2.52 µM) | 0.06 (≈ 0.151 µM) | 0.06 (≈ 0.151 µM) | 1 (≈ 2.52 µM) | – | – | – | – | – | – | – | –
CC#Cc1c(N2CC3NCCOC3C2)c(F)cc2c(=O)c(C(=O)O)cn(C3CC3)c12 (centres unmarked) [Example 8, 1-cyclopropyl-6-fluoro-1,4-dihydro-7-(2-oxa-5,8-diazabicyclo[4.3.0]non-8-yl)-4-oxo-8-(propin-1-yl)-3-quinolinecarboxylic acid] | 0.5 (≈ 1.22 µM) | 0.25 (≈ 0.608 µM) | 0.5 (≈ 1.22 µM) | 1 (≈ 2.43 µM) | 2 (≈ 4.86 µM) | 0.13 (≈ 0.316 µM) | 0.13 (≈ 0.316 µM) | 4 (≈ 9.72 µM) | – | – | – | – | – | – | – | –

Second part, led by results:

MIC [1, 7] [µg/mL] | MIC (E. coli Neumann; [8]) [µg/mL] | MIC [2, 9] [µg/mL] | MIC [3, 10] [µg/mL] | MIC (Micrococcus luteus 9341; [11]) [µg/mL] | MIC [4, 12] [µg/mL] | MIC [5, 13] [µg/mL] | MIC [6, 14] [µg/mL] | Compound | MIC ([1]; Acinetobacter calcoaceticus, 14068, 20 h) [µg/mL] | MIC (E. coli Neumann; 20 h) [µg/mL] | MIC ([2]; Enterococcus faecalis, 27101, 20 h) [µg/mL] | MIC ([3]; Enterococcus faecalis, 9790, 20 h) [µg/mL] | MIC (Micrococcus luteus 9341; Micrococcus luteus, 9341, 20 h) [µg/mL] | MIC ([4]; Staphylococcus aureus, 133, 20 h) [µg/mL] | MIC ([5]; Staphylococcus aureus, 1756, 20 h) [µg/mL] | MIC ([6]; Staphylococcus aureus, ICB25701, 20 h) [µg/mL]
0.13 (≈ 0.308 µM) | 0.13 (≈ 0.308 µM) | 0.13 (≈ 0.308 µM) | 0.13 (≈ 0.308 µM) | 0.25 (≈ 0.593 µM) | 0.06 (≈ 0.142 µM) | 0.06 (≈ 0.142 µM) | 0.25 (≈ 0.593 µM) | C#Cc1c(N2CC3CC=CC(NC)C3C2)c(F)cc2c(=O)c(C(=O)O)cn(C3CC3)c12 (centres unmarked) [Example 13, 1-cyclopropyl-8-ethinyl-6-fluoro-1,4-dihydro-7-(4-methylamino-1,3,3a,4,7,7a-hexahydroisoindol-2-yl)-4-oxo-3-quinolinecarboxylic acid] | – | – | – | – | – | – | – | –
0.03 (≈ 0.0733 µM) | 0.02 (≈ 0.0488 µM) | 1 (≈ 2.44 µM) | 1 (≈ 2.44 µM) | 8 (≈ 19.5 µM) | 0.02 (≈ 0.0488 µM) | 0.02 (≈ 0.0488 µM) | 32 (≈ 78.2 µM) | C=C(C)C#Cc1c(N2CCN(C)CC2)c(F)cc2c(=O)c(C(=O)O)cn(C3CC3)c12 [Example 14, 1-cyclopropyl-6-fluoro-1,4-dihydro-8-(3-methyl-but-3-en-1-inyl)-7-(4-methyl-1-piperazinyl)-4-oxo-3-quinolinecarboxylic acid] | – | – | – | – | – | – | – | –
0.03 | 0.03 | 0.25 | 0.25 | 1 | 0.13 | 0.13 | 4 | C=C(Cl)c1c(N2CCN(C)CC2)c(F)cc2c(=O)c(C(=O)O)cn(C3CC3)c12.Cl [Example 17, 8-(1-chlorovinyl)-1-cyclopropyl-6-fluoro-1,4-dihydro-7-(4-methyl-1-piperazinyl)-4-oxo-3-quinolinecarboxylic acid hydrochloride] | – | – | – | – | – | – | – | –
